Columns and labels:
Type in all cases: in vivo
[1] = tested on: Nephotettix virescens; test: Rice green leafhopper spray test on rice seedlings; conditions: adults on sprayed rice seedlings, after 72 hours, read-out: mortality in comparison with untreated controls
Method: (§1) General conditions: If not otherwise specified, the test solutions are prepared as follows:
(§2) The active compound is dissolved at the desired concentration in a mixture of 1:1 (vol:vol) distilled water: acetone. The test solution is prepared at the day of use.
(§3) Test solutions are prepared in general at different concentrations (wt/vol).
(§4) Rice seedlings are cleaned and washed 24 hours before spraying. The active compounds are formulated in 50:50 acetone:water (vol:vol), and 0.1% vol/vol surfactant (EL 620) is added. Potted rice seedlings are sprayed with 5 ml test solution, air dried, placed in cages and inoculated with 10 adults. Treated rice plants are kept at about 28-29° C. and relative humidity of about 50-60%. Percent mortality is recorded after 72 hours.

[2] = tested on: Dichromothrips corbetti; test: Orchid thrips floral-immersion test; conditions: adult thrips, 72 hours after treatment, read-out: mortality in comparison with untreated controls
Method: as §1, §2, §3
Dichromothrips corbetti adults used for bioassay are obtained from a colony maintained continuously under laboratory conditions. For testing purposes, the test compound is diluted in a 1:1 mixture of acetone:water (vol:vol), plus 0.01% vol/vol Alkamuls® EL 620 surfactant.
Thrips potency of each compound is evaluated by using a floral-immersion technique. Plastic petri dishes are used as test arenas. All petals of individual, intact orchid flowers are dipped into treatment solution and allowed to dry. Treated flowers are placed into individual petri dishes along with about 20 adult thrips. The petri dishes v then covered with lids. All test arenas are held under continuous light and a temperature of about 28° C. for duration of the assay. After 3 days, the numbers of live thrips are counted on each flower, and along inner walls of each petri dish. The percent mortality is recorded 72 hours after treatment.

[3] = tested on: Nilaparvata lugens; test: Rice brown plant hopper spray test on rice seedlings; conditions: adults on sprayed rice seedlings, after 72 hours, read-out: mortality in comparison with untreated controls
Method: as §1, §2, §3
as §4, with “(vol:vol)” for “(vol:vol),”

Measured: mortality at 500 ppm

Cn1c2[n+](c([O-])c(-c3ccccc3)c1=O)C(CC#N)CS2 (stereo not drawn) [Example C1, 3-(cyanomethyl)-8-methyl-7-oxo-6-phenyl-2,3-dihydrothiazolo[3,2-a]pyrimidin-4-ium-5-olate]
> 75%: all assays above

From patent publication US11542280B2, “Substituted pyrimidinium compounds and derivatives for combating animal pests” (BASF SE, priority 2017, dated 2023)
